Assay results reported in PubChem BioAssay (NCI).
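Test compounds were applied to cells in 96-well plates for 48 hours at 5 doses. Definition used: TGI = concentration required for complete inhibition of growth.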

What was measured:
Experiment in all cases: DTP human tumour cell line panel, 48 h
[1] = test system: HOP-92 NSCLC
[2] = test system: HCT-15 colon
[3] = test system: PC-3 prostate
[4] = test system: U251 CNS
[5] = test system: OVCAR-3 ovarian
[6] = test system: NCI-H226 lung
[7] = test system: MCF7 breast
[8] = test system: HS 578T breast
[9] = test system: MDA-MB-435
[10] = test system: TK-10 renal
[11] = test system: HCT-116 colon
[12] = test system: NCI-H522 lung
[13] = test system: SF-268 CNS
[14] = test system: T-47D breast
[15] = test system: SNB-19 CNS
[16] = test system: COLO 205 colon
[17] = test system: MALME-3M melanoma
[18] = test system: UACC-257 melanoma
[19] = test system: SK-MEL-28 melanoma
[20] = test system: IGROV1 ovarian
[21] = test system: M14 melanoma
[22] = test system: SF-295 CNS
[23] = test system: LOX IMVI melanoma
[24] = test system: UACC-62 melanoma
[25] = test system: CCRF-CEM leukemia
[26] = test system: CAKI-1 renal
[27] = test system: OVCAR-5 ovarian
[28] = test system: MDA-N
[29] = test system: DU-145 prostate
[30] = test system: NCI/ADR-RES ovarian
[31] = test system: SK-MEL-2 melanoma
[32] = test system: OVCAR-4 ovarian
[33] = test system: SK-OV-3 ovarian
[34] = test system: HT29 colon
[35] = test system: HCC-2998 colon
[36] = test system: 786-0 renal
[37] = test system: MOLT-4 leukemia
[38] = test system: BT-549 breast
[39] = test system: NCI-H23 lung
[40] = test system: RPMI-8226 leukemia
[41] = test system: EKVX NSCLC
[42] = test system: SN12C renal
[43] = test system: RXF 393 renal
[44] = test system: SW-620 colon
[45] = test system: SK-MEL-5 melanoma
[46] = test system: OVCAR-8 ovarian
[47] = test system: SNB-75 CNS
[48] = test system: A549 NSCLC
[49] = test system: A498 renal
[50] = test system: K-562 leukemia
[51] = test system: UO-31 renal
[52] = test system: KM12 colon
[53] = test system: SF-539 CNS
[54] = test system: NCI-H460 lung
[55] = test system: ACHN renal
[56] = test system: MDA-MB-231 breast
[57] = test system: HL-60(TB) leukemia
[58] = test system: HOP-62 NSCLC
[59] = test system: SR leukemia

O=c1cc(N2CCN(c3cc(=O)n4ccccc4n3)CC2)oc2ccccc12
TGI [1]: > 100 µM | TGI [2]: > 100 µM | TGI [3]: > 100 µM | TGI [4]: > 100 µM | TGI [5]: > 100 µM | TGI [6]: > 100 µM | TGI [7]: > 100 µM | TGI [8]: > 80.2 µM | TGI [9]: > 100 µM | TGI [10]: > 100 µM | TGI [11]: > 100 µM | TGI [12]: > 100 µM | TGI [13]: > 65.3 µM | TGI [14]: > 100 µM | TGI [15]: > 100 µM | TGI [16]: > 100 µM | TGI [17]: > 100 µM | TGI [18]: > 71.8 µM | TGI [19]: > 100 µM | TGI [20]: > 100 µM | TGI [21]: > 100 µM | TGI [22]: > 100 µM | TGI [23]: > 100 µM | TGI [24]: > 100 µM | TGI [25]: > 100 µM | TGI [26]: > 100 µM | TGI [27]: > 100 µM | TGI [28]: > 100 µM | TGI [29]: > 100 µM | TGI [30]: > 100 µM | TGI [31]: > 100 µM | TGI [32]: > 100 µM | TGI [33]: > 100 µM | TGI [34]: > 100 µM | TGI [35]: > 100 µM | TGI [36]: > 100 µM | TGI [37]: > 100 µM | TGI [38]: > 100 µM | TGI [39]: > 100 µM | TGI [40]: 90.5 µM | TGI [41]: > 31.6 µM | TGI [42]: > 100 µM | TGI [43]: > 100 µM | TGI [44]: > 100 µM | TGI [45]: > 100 µM | TGI [46]: 96.9 µM | TGI [47]: > 54.3 µM | TGI [48]: > 87.8 µM | TGI [49]: > 100 µM | TGI [50]: > 100 µM | TGI [51]: > 70.9 µM | TGI [52]: > 68.5 µM | TGI [53]: > 100 µM | TGI [54]: > 100 µM | TGI [55]: > 100 µM | TGI [56]: > 100 µM

COc1ccc(C(SC2C(O)C(CO)OC2n2ccc(N)nc2=O)(c2ccccc2)c2ccc(OC)cc2)cc1 (stereo not drawn)
TGI [1]: 37.3 µM | TGI [2]: 46.2 µM | TGI [3]: 41.1 µM | TGI [57]: 69.4 µM | TGI [4]: 33 µM | TGI [5]: 48.5 µM | TGI [6]: 28.3 µM | TGI [7]: 50.6 µM | TGI [8]: 48.1 µM | TGI [9]: 28.2 µM | TGI [10]: 66.2 µM | TGI [11]: 29.4 µM | TGI [12]: 31.2 µM | TGI [13]: 39.5 µM | TGI [14]: 47.4 µM | TGI [15]: 64.4 µM | TGI [16]: 28.7 µM | TGI [17]: 28.3 µM | TGI [18]: 41.7 µM | TGI [19]: 75.6 µM | TGI [20]: 67 µM | TGI [21]: 27.9 µM | TGI [22]: 49.8 µM | TGI [23]: 33.1 µM | TGI [24]: 33 µM | TGI [25]: > 100 µM | TGI [26]: > 100 µM | TGI [27]: 50.8 µM | TGI [28]: 24.2 µM | TGI [29]: 39.4 µM | TGI [30]: 60 µM | TGI [31]: 33 µM | TGI [32]: 78.2 µM | TGI [33]: 56.1 µM | TGI [34]: 36.2 µM | TGI [35]: 32.6 µM | TGI [36]: 30.8 µM | TGI [58]: 40.5 µM | TGI [37]: > 100 µM | TGI [38]: 43 µM | TGI [39]: 57.6 µM | TGI [40]: 59.3 µM | TGI [41]: 50.4 µM | TGI [42]: 27.5 µM | TGI [59]: 58 µM | TGI [43]: 31.5 µM | TGI [44]: > 100 µM | TGI [45]: 25.6 µM | TGI [46]: > 100 µM | TGI [47]: 46.6 µM | TGI [48]: 54.2 µM | TGI [50]: 88.3 µM | TGI [51]: 42.8 µM | TGI [52]: 71.2 µM | TGI [53]: 36.3 µM | TGI [54]: 27.2 µM | TGI [55]: > 100 µM | TGI [56]: 30.8 µM

CCOC(=O)c1nc2ccc(C(F)(F)F)cc2nc1Oc1cc(OC)cc(OC)c1
TGI [1]: > 100 µM | TGI [2]: > 100 µM | TGI [3]: > 100 µM | TGI [57]: > 100 µM | TGI [4]: > 100 µM | TGI [5]: > 100 µM | TGI [6]: > 100 µM | TGI [7]: > 100 µM | TGI [8]: 64.2 µM | TGI [9]: > 100 µM | TGI [10]: > 100 µM | TGI [11]: > 100 µM | TGI [13]: > 100 µM | TGI [14]: > 100 µM | TGI [15]: > 100 µM | TGI [16]: > 100 µM | TGI [17]: > 100 µM | TGI [18]: > 100 µM | TGI [19]: > 100 µM | TGI [20]: > 100 µM | TGI [21]: > 100 µM | TGI [22]: > 100 µM | TGI [23]: > 100 µM | TGI [24]: > 100 µM | TGI [25]: > 100 µM | TGI [27]: > 100 µM | TGI [28]: > 100 µM | TGI [29]: > 100 µM | TGI [30]: > 100 µM | TGI [31]: > 100 µM | TGI [32]: 95.1 µM | TGI [33]: > 100 µM | TGI [34]: > 100 µM | TGI [36]: > 100 µM | TGI [58]: > 100 µM | TGI [37]: > 100 µM | TGI [38]: > 100 µM | TGI [40]: > 100 µM | TGI [41]: > 100 µM | TGI [42]: > 100 µM | TGI [43]: > 100 µM | TGI [44]: > 100 µM | TGI [45]: 79.1 µM | TGI [46]: > 100 µM | TGI [47]: 75.6 µM | TGI [48]: > 100 µM | TGI [49]: > 100 µM | TGI [50]: > 100 µM | TGI [51]: > 100 µM | TGI [52]: > 100 µM | TGI [53]: > 100 µM | TGI [54]: > 100 µM | TGI [55]: > 100 µM | TGI [56]: > 100 µM
